Patent US10219516B2, “Molecules having pesticidal utility, and intermediates, compositions, and processes, related thereto” (priority 2015, dated 2019)

Experiments:
Type in all cases: in vivo
[1] = tested on: Yellow Fever Mosquito (Aedes aegypti, AEDSAE); experiment: Bioassay on Yellow Fever Mosquito (YFM), 96-well plate larval assay; conditions: Yellow Fever Mosquito, 96-well plate larval assay
Summary of the method: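 Aedes aegypti larvae (about 1 day old) in liver-powder water were added to plates dispensed from DMSO master plates (4000 ppm stock) diluted with 90:10 water/acetone; six replicate plates per master. Lidded plates were held at room temperature for 3 days, then each well was scored for mortality.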

[2] = tested on: Cabbage Looper (Trichoplusia ni, TRIPNI); experiment: Bioassay on Cabbage Looper (CL), 128-well diet tray assay; conditions: Trichoplusia ni; Cabbage Looper, 128-well diet tray assay; read-out: CL rating
Summary of the method: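 Second-instar larvae, one to five per well, were placed on artificial diet surface-treated with 50 μg/cm^2 test molecule applied in 90:10 acetone-water and dried, eight wells per molecule. Trays were covered, vented and held at 25° C., 14:10 light-dark for five to seven days; percent mortality per well was averaged.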

[3] = tested on: Beet Armyworm (Spodoptera exigua, LAPHEG); experiment: Bioassay on Beet Armyworm (BAW), 128-well diet tray assay; conditions: Beet Armyworm, 128-well diet tray assay, read-out: BAW rating
Summary of the method: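 Test molecule dissolved in acetone-water 90:10 is applied at 50 μg/cm^2 onto artificial diet and allowed to dry. Second instar larvae, one to five per well, are then added, and trays are vented and kept at 25° C. for five to seven days before mortality is scored.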

CC(=O)c1cc(F)ccc1NC(=O)c1cc(NC(=O)[C@H]2[C@H](c3cc(Cl)cc(Cl)c3)C2(Cl)Cl)ccc1Cl (relative stereo) [PF77, trans-N-(2-acetyl-4-fluorophenyl)-2-chloro-5-(2,2-dichloro-3-(3,5-dichlorophenyl)cyclopropane-1-carboxamido)benzamide]
YFM rating [1]: A (80-100)
pest or weed control at 50 µg/cm2 [2]: 50 to 100%
pest or weed control at 50 µg/cm2 [3]: 50 to 100%

CC(=O)c1ccc(NC(=O)c2cc(NC(=O)[C@H]3[C@H](c4cc(Cl)cc(Cl)c4)C3(Cl)Cl)ccc2Cl)c(F)c1 (relative stereo) [PF78, trans-N-(4-acetyl-2-fluorophenyl)-2-chloro-5-(2,2-dichloro-3-(3,5-dichlorophenyl)cyclopropane-1-carboxamido)benzamide]
YFM rating [1]: A (80-100)
pest or weed control at 50 µg/cm2 [2]: 50 to 100%
pest or weed control at 50 µg/cm2 [3]: 50 to 100%

O=C(Nc1ccc(-n2cnnc2)cc1)c1cc(NC(=O)[C@H]2[C@H](c3cc(Cl)cc(Cl)c3)C2(Cl)Cl)ccc1Cl (relative stereo) [PF102, trans-N-(4-(4H-1,2,4-Triazol-4-yl)phenyl)-2-chloro-5-(2,2-dichloro-3-(3,5-dichlorophenyl)cyclopropane-1-carboxamido)benzamide]
YFM rating [1]: A (80-100)
pest or weed control at 50 µg/cm2 [2]: 50 to 100%
pest or weed control at 50 µg/cm2 [3]: 50 to 100%

O=C(Nc1ccc(NC(=O)C2CC2)cc1)c1cc(NC(=O)[C@H]2[C@H](c3cc(Cl)cc(Cl)c3)C2(Cl)Cl)ccc1Cl (relative stereo) [PF107, trans-2-Chloro-N-(4-(cyclopropane-1-carboxamido)phenyl)-5-(2,2-dichloro-3-(3,5-dichlorophenyl)cyclopropane-1-carboxamido)benzamide]
YFM rating [1]: A (80-100)
pest or weed control at 50 µg/cm2 [2]: 50 to 100%
pest or weed control at 50 µg/cm2 [3]: 50 to 100%

O=C(Nc1ccc(NC(=O)C2CC2(F)F)cc1)c1cc(NC(=O)[C@H]2[C@H](c3cc(Cl)cc(Cl)c3)C2(Cl)Cl)ccc1Cl (relative stereo) [PF108, trans-2-chloro-5-(2,2-dichloro-3-(3,5-dichlorophenyl)cyclopropane-1-carboxamido)-N-(4-(2,2-difluorocyclopropane-1-carboxamido)phenyl)benzamide]
YFM rating [1]: A (80-100)
pest or weed control at 50 µg/cm2 [2]: 50 to 100%
pest or weed control at 50 µg/cm2 [3]: 50 to 100%

COC(=O)Nc1ccc(NC(=O)c2cc(NC(=O)[C@H]3[C@H](c4cc(Cl)cc(Cl)c4)C3(Cl)Cl)ccc2Cl)cc1 (relative stereo) [PF110, trans-methyl (4-(2-chloro-5-(2,2-dichloro-3-(3,5-dichlorophenyl)cyclopropane-1-carboxamido)benzamido)phenyl)carbamate]
YFM rating [1]: B (More than 0-Less than 80)
pest or weed control at 50 µg/cm2 [2]: 50 to 100%
pest or weed control at 50 µg/cm2 [3]: 50 to 100%

Cc1cc(NC(=O)c2cc(NC(=O)[C@H]3[C@H](c4cc(Cl)cc(Cl)c4)C3(Cl)Cl)ccc2Cl)ccc1Cl (relative stereo) [PF113, trans-2-Chloro-N-(4-chloro-3-methylphenyl)-5-(2,2-dichloro-3-(3,5-dichlorophenyl)cyclopropane-1-carboxamido)benzamide]
YFM rating [1]: A (80-100)
pest or weed control at 50 µg/cm2 [2]: 50 to 100%
pest or weed control at 50 µg/cm2 [3]: 50 to 100%

O=C(Nc1nnn[nH]1)c1cc(NC(=O)[C@H]2[C@H](c3cc(Cl)cc(Cl)c3)C2(Cl)Cl)ccc1Cl (relative stereo) [PF130, trans-2-Chloro-5-(2,2-dichloro-3-(3,5-dichlorophenyl)cyclopropane-1-carboxamido)-N-(1H-tetrazol-5-yl)benzamide]
YFM rating [1]: B (More than 0-Less than 80)
pest or weed control at 50 µg/cm2 [2]: 50 to 100%
pest or weed control at 50 µg/cm2 [3]: 50 to 100%

O=C(Nc1nc(-c2cccs2)cs1)c1cc(NC(=O)[C@H]2[C@H](c3cc(Cl)cc(Cl)c3)C2(Cl)Cl)ccc1Cl (relative stereo) [PF135, trans-2-Chloro-5-(2,2-dichloro-3-(3,5-dichlorophenyl)cyclopropane-1-carboxamido)-N-(4-(thiophen-2-yl)thiazol-2-yl)benzamide]
YFM rating [1]: A (80-100)
pest or weed control at 50 µg/cm2 [2]: 50 to 100%
pest or weed control at 50 µg/cm2 [3]: 50 to 100%

O=C(Nc1c[nH]c(=O)[nH]c1=O)c1cc(NC(=O)[C@H]2[C@H](c3cc(Cl)cc(Cl)c3)C2(Cl)Cl)ccc1Cl (relative stereo) [PF139, trans-2-Chloro-5-(2,2-dichloro-3-(3,5-dichlorophenyl)cyclopropane-1-carboxamido)-N-(2,4-dioxo-1,2,3,4-tetrahydropyrimidin-5-yl)benzamide]
YFM rating [1]: B (More than 0-Less than 80)
pest or weed control at 50 µg/cm2 [2]: 50 to 100%
pest or weed control at 50 µg/cm2 [3]: 50 to 100%

O=C(Nc1cc(Cl)ccn1)c1cc(NC(=O)[C@H]2[C@H](c3cc(Cl)cc(Cl)c3)C2(Cl)Cl)ccc1Cl (relative stereo) [PF140, trans-2-Chloro-N-(4-chloropyridin-2-yl)-5-(2,2-dichloro-3-(3,5-dichlorophenyl)cyclopropane-1-carboxamido)benzamide]
YFM rating [1]: A (80-100)
pest or weed control at 50 µg/cm2 [2]: 50 to 100%
pest or weed control at 50 µg/cm2 [3]: 50 to 100%

O=C(Nc1ccc(Cl)cn1)c1cc(NC(=O)[C@H]2[C@H](c3cc(Cl)cc(Cl)c3)C2(Cl)Cl)ccc1Cl (relative stereo) [PF141, trans-2-Chloro-N-(5-chloropyridin-2-yl)-5-(2,2-dichloro-3-(3,5-dichlorophenyl)cyclopropane-1-carboxamido)benzamide]
YFM rating [1]: B (More than 0-Less than 80)
pest or weed control at 50 µg/cm2 [2]: 50 to 100%
pest or weed control at 50 µg/cm2 [3]: 50 to 100%

N#Cc1ccc(NC(=O)c2cc(NC(=O)[C@H]3[C@H](c4cc(Cl)cc(Cl)c4)C3(Cl)Cl)ccc2Cl)nc1 (relative stereo) [PF143, trans-2-Chloro-N-(5-cyanopyridin-2-yl)-5-(2,2-dichloro-3-(3,5-dichlorophenyl)cyclopropane-1-carboxamido)benzamide]
YFM rating [1]: A (80-100)
pest or weed control at 50 µg/cm2 [2]: 50 to 100%
pest or weed control at 50 µg/cm2 [3]: 50 to 100%

CC(=O)Nc1ccc(NC(=O)c2cc(NC(=O)[C@H]3[C@H](c4cc(Cl)cc(Cl)c4)C3(Cl)Cl)ccc2Cl)c(C)c1 (relative stereo) [PF158, trans-N-(4-Acetamido-2-methylphenyl)-2-chloro-5-(2,2-dichloro-3-(3,5-dichlorophenyl)cyclopropane-1-carboxamido)benzamide]
YFM rating [1]: A (80-100)
pest or weed control at 50 µg/cm2 [2]: 50 to 100%
pest or weed control at 50 µg/cm2 [3]: 50 to 100%

COCC1(C(=O)Nc2ccc(NC(=O)c3cc(NC(=O)[C@H]4[C@H](c5cc(Cl)cc(Cl)c5)C4(Cl)Cl)ccc3Cl)cc2)CC1 (relative stereo) [PF161, trans-2-Chloro-5-(2,2-dichloro-3-(3,5-dichlorophenyl)cyclopropane-1-carboxamido)-N-(4-(1-(methoxymethyl)cyclopropane-1-carboxamido)phenyl)benzamide]
YFM rating [1]: A (80-100)
pest or weed control at 50 µg/cm2 [2]: 50 to 100%
pest or weed control at 50 µg/cm2 [3]: 50 to 100%

O=C(CC1CC1)Nc1ccc(NC(=O)c2cc(NC(=O)[C@H]3[C@H](c4cc(Cl)cc(Cl)c4)C3(Cl)Cl)ccc2Cl)cc1 (relative stereo) [PF163, trans-2-Chloro-N-(4-(2-cyclopropylacetamido)phenyl)-5-(2,2-dichloro-3-(3,5-dichlorophenyl)cyclopropane-1-carboxamido)benzamide]
YFM rating [1]: A (80-100)
pest or weed control at 50 µg/cm2 [2]: 50 to 100%
pest or weed control at 50 µg/cm2 [3]: 50 to 100%
